Legend:
[1] = test system: Grb10 S501/S503 phosphorylation in wild type (WT) MEFs; test: Immunoblot of Grb10 phosphorylation after insulin or serum stimulation; type: cell-based, mouse; conditions: serum-starved WT MEFs, preincubated two hours (rapamycin 20 nM, AZD6244 5 μM), insulin 100 nM or serum 10% 15 min
Experimental: (§1) FIG. 2. Phosphorylation of Grb10 at S501/S503 is sensitive to rapamycin inhibition. (A) Identification of a doubly-phosphorylated rapamycin-sensitive Grb10 peptide (MNILSS*QS*[…] , SEQ ID NO: 2, * indicates phosphorylation sites) corresponding to S501/S503. (B) Evolutionary conservation of Grb10 S501/S503 among vertebrate species. […] TSC2−/− cells were starved for serum and treated with 20 nM rapamycin for the indicated times. Sequences, from top to bottom: SEQ ID NO: 1723 to SEQ ID NO: 1727, respectively. (D) Phosphorylation of Grb10 at S501/501 is sensitive to amino acids withdrawal. TSC2−/− cells were starved in DMEM overnight and then transferred to D-PBS for the indicated times. (E) Phosphorylation of Grb10 at S501/S503 is not affected by the pan-kinase inhibitor, staurosporine. TSC2−/− cells were starved for serum and treated with either 100 nM staurosporine or Ku-0063794 at the indicated concentrations for two hours. (F) Grb10 phosphorylation is increased upon growth factor stimulation. Wild type (WT) mouse embryonic fibroblasts (MEFs) were starved for serum overnight and then were stimulated with insulin (100 nM) or serum (10%) for 15 min. The cells were preincubated with the indicated compounds for two hours. […] Rapamycin (rapa) was used at 20 nM. (G) Grb10 phosphorylation at S501/S503 is sensitive to various mTOR kinase inhibitors. […]

[2] = test system: ERK in wild type (WT) MEFs; test: Immunoblot of ERK activity after growth factor stimulation; type: cell-based, mouse; conditions: serum-starved WT MEFs, AZD6244 5 μM two hours, insulin or serum 15 min
Experimental: as §1

Akt phosphorylation = test: Immunoblot of insulin-induced Akt phosphorylation; conditions: FIG. 5C
Experimental: For the Ku-screen, wild-type MEFs were grown in light and heavy SILAC media and starved overnight for serum. […] Both the light and heavy cell were subsequently stimulated with insulin for 15 minutes and samples were pooled and analyzed by quantitative mass spectrometry.
Samples were boiled for 5 min and subject to electrophoresis using the standard SDS-PAGE method. Proteins were then transferred to a nitrocellulose membrane (Whatman). The membranes were blocked with a TBST buffer (25 mM Tris-HCl, pH 7.5, 150 mM NaCl, 0.05% Tween 20) containing 3% nonfat dried milk, and probed overnight with primary antibodies at 4° C. and for 1 h at RT with peroxidase-conjugated secondary antibodies. Blots were developed using enhanced chemiluminescence, exposed on autoradiograph film and developed using standard methods.

wild-type MEFs = test: Ku-0063794 screen: SILAC quantitative phosphoproteomics in rapamycin-inhibited, insulin-stimulated cells
[3] = test system: Grb10 S501/S503 phosphorylation in TSC2−/− cells; test: Immunoblot of Grb10 S501/S503 phosphorylation with phospho-specific antibody; type: cell-based, mouse; conditions: serum-starved TSC2−/− cells, two hours; rapamycin 20 nM, staurosporine 100 nM, LY294002 20 μM, BEZ235 500 nM, torin 100 nM, pp 242 1 μM, Ku-0063794 at indicated concentrations
Experimental: FIG. 2. Phosphorylation of Grb10 at S501/S503 is sensitive to rapamycin inhibition. (A) Identification of a doubly-phosphorylated rapamycin-sensitive Grb10 peptide (MNILSS*QS*[…] , SEQ ID NO: 2, * indicates phosphorylation sites) corresponding to S501/S503. (B) Evolutionary conservation of Grb10 S501/S503 among vertebrate species. […] TSC2−/− cells were starved for serum and treated with 20 nM rapamycin for the indicated times. Sequences, from top to bottom: SEQ ID NO: 1723 to SEQ ID NO: 1727, respectively. (D) Phosphorylation of Grb10 at S501/501 is sensitive to amino acids withdrawal. TSC2−/− cells were starved in DMEM overnight and then transferred to D-PBS for the indicated times. (E) Phosphorylation of Grb10 at S501/S503 is not affected by the pan-kinase inhibitor, staurosporine. TSC2−/− cells were starved for serum and treated with either 100 nM staurosporine or Ku-0063794 at the indicated concentrations for two hours. (F) Grb10 phosphorylation is increased upon growth factor stimulation. Wild type (WT) mouse embryonic fibroblasts (MEFs) were starved for serum overnight and then were stimulated with insulin (100 nM) or serum (10%) for 15 min. The cells were preincubated with the indicated compounds for two hours. […] Rapamycin (rapa) was used at 20 nM. (G) Grb10 phosphorylation at S501/S503 is sensitive to various mTOR kinase inhibitors. TSC2−/− cells were serum-starved and treated with the indicated compounds for two hours. The concentrations of the compounds were rapamycin 20 nM, LY (LY294002) 20 μM, BEZ235 (NVP-BEZ235) 500 nM, torin 100 nM, and pp 242 1 μM.
We developed a phosphospecific antibody (FIGS. 9A and 9B) to further characterize these two Grb10 phosphorylation sites. […] The dephosphorylation kinetics correlated well with that of S6K.
We further investigated the effects of growth factor stimulation and rapamycin-mediated inhibition on Grb10 phosphorylation in other cell types. Wild-type MEFs were serum-starved and then stimulated with either insulin or 10% serum, both of which led to a robust increase in Grb10 phosphorylation (FIG. 2F). […] It was previously reported that Grb10 S503 (S476 in human Grb10 isoform 3) was phosphorylated by ERK1/2 in vitro (13).

[4] = test system: Grb10 protein in TSC1−/− cells; test: Immunoblot of Grb10 protein level in TSC1−/− cells; type: cell-based, mouse
Experimental: (§2) FIG. 9. Phosphorylation of Grb10 at S501/S503 regulates its stability. […] Preincubation of the antibody with the […] completely eliminated the immunoreactivity. (B) Further validation of the phospho-specific antibody raised against the Grb10 S501/S503 sites. Grb10 WT, S501A/S503A (AA) and S501D/S503D (DD) were transfected into HEK239T cells and were probed with the antibody. Note that this antibody detected wild type (WT) Grb10, but neither of the mutant proteins. (C) Treatment of TSC2−/− cells with various mTOR kinase inhibitors led to Grb10 degradation. […] (E) Grb10 is highly overexpressed in TSC1−/− cells compared with their wild-type counterparts. (F) rapamycin treatment of TSC2−/− cells stably expressing wild type (WT) Grb10 led to lower levels of both endogenous and exogenous Grb10.
In addition, long-term treatment with mTOR kinase inhibitors, including LY-294002, NVP-BEZ235, torin and pp 242 all led to reduced Grb10 protein expression (FIG. 9C). Similar results were obtained in TSC1−/− MEFs (FIG. 9D). In contrast, we found Grb10 was highly overexpressed in TSC2−/− and TSC1−/− MEFs compared with their wild-type counterparts (FIGS. 3E and 9E), correlating with elevated mTORC1 activity in these cells.

[5] = test system: Grb10 protein in TSC2−/− cells; test: Immunoblot of Grb10 protein level after long-term treatment; type: cell-based, mouse; conditions: TSC2−/− cells, endogenous Grb10
Excerpt: FIG. 3. mTOR-mediated Grb10 phosphorylation is important for Grb10 stability. (A) Grb10 interacts with raptor, but not rictor. HA-tagged Grb10 was co-transfected with Myc-raptor or Myc-rictor in HEK293T cells. Cells were lysed in lysis buffer A, and the lysates were subjected to immunoprecipitation using anti-HA antibody conjugated beads. Raptor and rictor were probed with an antibody against the Myc-tag. (B) Grb10 is phosphorylated by mTOR in vitro. […] Phosphorylation of Grb10 at S501/S503 was detected by using the phospho-specific antibody against these two sites. (C) Long-term rapamycin treatment leads to Grb10 degradation in TSC2−/− cells. Note that Grb10 protein expression levels inversely correlated with Akt activity. Grb10 is highly overexpressed in TSC2−/− cells. mRNA level was determined using quantitative RT-PCR based on three biological replicate experiments. (D) Knockdown of raptor in TSC2−/− cells decreased Grb10 protein level. Cells were starved overnight and the lysates were probed with the antibodies indicated. (E) Grb10 is highly overexpressed in TSC2−/− cells. (F) S501A/S503A mutant is unstable compared with the wild-type or the S501D/S503D mutant. The same amount of DNA was transfected into HEK293T cells. […] Endogenous Grb10 was detected using an antibody that preferentially recognizes mouse Grb10 whereas the Grb10 DD mutant (of human origin) was detected using an anti-HA antibody.
as §2
In addition, long-term treatment with mTOR kinase inhibitors, including LY-294002, NVP-BEZ235, torin and pp 242 all led to reduced Grb10 protein expression (FIG. 9C). Similar results were obtained in TSC1−/− MEFs (FIG. 9D). In contrast, we found Grb10 was highly overexpressed in TSC2−/− and TSC1−/− MEFs compared with their wild-type counterparts (FIGS. 3E and 9E), correlating with elevated mTORC1 activity in these cells. […]

[6] = test system: phospho-mTOR S2481 in TSC2−/− cells; test: Immunoblot of mTOR S2481 phosphorylation; type: cell-based, mouse; conditions: starved TSC2−/− cells; 20 nM rapamycin acute treatment; pp 242 two hours
[7] = test system: rpS6 phosphorylation in TSC2−/− cells; test: Immunoblot of rpS6 phosphorylation (S6K activity); type: cell-based, mouse; conditions: serum-starved TSC2−/− cells, 100 nM staurosporine, two hours
Experimental: as §1

[8] = target: T1, Myc-tagged rictor (pRK5-Myc-Rictor) (UniProt Q6R327 1-1708); test: co-immunoprecipitation with anti-HA beads from co-transfected HEK293T cells, anti-Myc blot
T1 construct: Co-overexpressed with HA-Grb10 in HEK293T cells; not shown: Myc tag
T1 sequence (Q6R327 whole entry): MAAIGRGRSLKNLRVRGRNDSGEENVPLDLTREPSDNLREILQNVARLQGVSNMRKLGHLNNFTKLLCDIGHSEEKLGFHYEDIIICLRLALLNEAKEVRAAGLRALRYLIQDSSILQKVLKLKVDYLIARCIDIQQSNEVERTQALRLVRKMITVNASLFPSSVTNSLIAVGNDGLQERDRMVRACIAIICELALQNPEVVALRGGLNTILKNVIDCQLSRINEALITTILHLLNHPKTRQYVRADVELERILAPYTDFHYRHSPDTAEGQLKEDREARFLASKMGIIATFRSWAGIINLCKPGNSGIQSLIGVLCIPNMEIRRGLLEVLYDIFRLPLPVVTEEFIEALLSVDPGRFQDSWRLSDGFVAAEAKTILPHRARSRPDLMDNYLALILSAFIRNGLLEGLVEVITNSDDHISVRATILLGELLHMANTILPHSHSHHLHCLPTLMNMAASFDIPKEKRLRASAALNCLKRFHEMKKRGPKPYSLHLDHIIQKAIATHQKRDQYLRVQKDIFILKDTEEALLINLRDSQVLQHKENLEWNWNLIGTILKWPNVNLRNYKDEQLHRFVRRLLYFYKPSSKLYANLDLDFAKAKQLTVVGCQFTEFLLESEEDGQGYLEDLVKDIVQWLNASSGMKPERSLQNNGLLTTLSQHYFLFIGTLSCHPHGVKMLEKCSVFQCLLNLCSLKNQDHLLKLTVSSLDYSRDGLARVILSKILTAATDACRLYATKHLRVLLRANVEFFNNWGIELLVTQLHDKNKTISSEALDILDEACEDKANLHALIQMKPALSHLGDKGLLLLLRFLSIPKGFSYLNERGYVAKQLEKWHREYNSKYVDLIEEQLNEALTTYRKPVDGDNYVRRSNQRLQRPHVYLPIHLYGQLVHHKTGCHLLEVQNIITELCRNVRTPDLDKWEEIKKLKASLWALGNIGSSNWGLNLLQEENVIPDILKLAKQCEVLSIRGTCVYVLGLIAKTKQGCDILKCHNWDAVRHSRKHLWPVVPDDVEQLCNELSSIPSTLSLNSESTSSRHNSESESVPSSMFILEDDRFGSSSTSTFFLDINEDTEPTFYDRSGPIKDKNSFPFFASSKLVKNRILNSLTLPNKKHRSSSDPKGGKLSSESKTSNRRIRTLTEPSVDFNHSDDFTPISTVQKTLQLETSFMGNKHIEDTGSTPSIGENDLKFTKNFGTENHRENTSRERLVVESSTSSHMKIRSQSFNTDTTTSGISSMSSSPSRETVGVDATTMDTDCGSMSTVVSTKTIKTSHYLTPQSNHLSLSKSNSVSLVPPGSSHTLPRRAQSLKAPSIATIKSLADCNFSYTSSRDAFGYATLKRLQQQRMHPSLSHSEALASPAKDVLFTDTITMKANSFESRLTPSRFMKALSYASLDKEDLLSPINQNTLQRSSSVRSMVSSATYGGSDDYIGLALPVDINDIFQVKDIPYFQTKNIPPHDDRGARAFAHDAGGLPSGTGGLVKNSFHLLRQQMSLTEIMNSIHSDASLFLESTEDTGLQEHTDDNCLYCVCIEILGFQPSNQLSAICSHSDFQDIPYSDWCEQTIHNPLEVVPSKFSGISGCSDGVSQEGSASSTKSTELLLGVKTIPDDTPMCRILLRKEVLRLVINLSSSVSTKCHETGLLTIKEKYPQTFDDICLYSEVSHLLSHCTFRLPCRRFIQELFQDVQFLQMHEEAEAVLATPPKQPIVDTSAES

[9] = downregulated phosphorylation, wt MEFs, 20 nM rapamycin + 2 μM Ku-0063794 2 h vs rapamycin alone, insulin 15 min

Cn1cnc2c(F)c(Nc3ccc(Br)cc3Cl)c(C(=O)NOCCO)cc21 [AZD6244]
insulin- or serum-induced Grb10 S501/S503 phosphorylation [1]: no effect | activities of ERK [2]: completely abolished

COc1ccc(-c2ccc3c(N4CCOCC4)nc(N4C[C@@H](C)O[C@@H](C)C4)nc3n2)cc1CO [Ku-0063794]
insulin-induced Akt phosphorylation (Akt phosphorylation): inhibits | 4EBP T36/T45 phosphorylation (FIG. 6A) (wild-type MEFs; Ku-0063794 screen): completely abolished | intensity of T70 singly phosphorylated 4EBP1 peptide (wild-type MEFs; Ku-0063794 screen): did not change | rpS6 S235/236 phosphorylation (Class I site) (wild-type MEFs; Ku-0063794 screen, rapamycin-inhibited background): not further decreased | Median (treated/ctrl) fold-change of phosphopeptide DRSSS*APNVHINTIEPVNIDDLIR, Braf S312 (wild-type MEFs; [9]): 2.1 fold | Median (treated/ctrl) fold-change of phosphopeptide Eif4ebp1 T36, T45 (wild-type MEFs; [9]): 7.2 fold | Median (treated/ctrl) fold-change of phosphopeptide Eif4ebp2 S65 (wild-type MEFs; [9]): 6.8 fold | Median (treated/ctrl) fold-change of phosphopeptide LGS*FGSITR, Flnc S2234 (wild-type MEFs; [9]): 2.4 fold | Median (treated/ctrl) fold-change of phosphopeptide LNT*SDFQK, Akt1s1 T247 (wild-type MEFs; [9]): 31.3 fold | Median (treated/ctrl) fold-change of phosphopeptide TAS*GSS*VTSLEGTR, Ndrg1 S330, S333 (wild-type MEFs; [9]): 4.1 fold | Median (treated/ctrl) fold-change of phosphopeptide TGS*ESSQTGASATSGR, Eif4b S422 (wild-type MEFs; [9]): 2.2 fold | Median (treated/ctrl) fold-change of phosphopeptide TTS*FAESCKPVQQPSAFGSMK, Gsk3β S9 (wild-type MEFs; [9]): ~2.2 fold | Grb10 S501/S503 phosphorylation (immunoblot) [3]: dose-dependent dephosphorylation

Cn1c(=O)n(-c2ccc(C(C)(C)C#N)cc2)c2c3cc(-c4cnc5ccccc5c4)ccc3ncc21 [NVP-BEZ235]
level of Grb10 in TSC1−/− cells [4]: decreased level | Grb10 protein levels after long-term treatment [5]: reduced | Grb10 S501/S503 phosphorylation (immunoblot) [3]: completely abolished

CC(C)n1nc(-c2cc3cc(O)ccc3[nH]2)c2c(N)ncnc21 [pp 242]
mTOR S2481 phosphorylation (immunoblot) [6]: completely ablated | Grb10 protein levels after long-term treatment [5]: reduced | Grb10 S501/S503 phosphorylation (immunoblot) [3]: completely abolished

CN[C@@H]1C[C@H]2O[C@@](C)([C@@H]1OC)n1c3ccccc3c3c4c(c5c6ccccc6n2c5c31)C(=O)NC4 [staurosporine]
rpS6 phosphorylation (S6K activity) [7]: complete loss | Grb10 S501/S503 phosphorylation (immunoblot) [3]: No change

CCC(=O)N1CCN(c2ccc(-n3c(=O)ccc4cnc5ccc(-c6cnc7ccccc7c6)cc5c43)cc2C(F)(F)F)CC1 [torin]
Grb10 protein levels after long-term treatment [5]: reduced | Grb10 S501/S503 phosphorylation (immunoblot) [3]: completely abolished

B1: HA-tagged Grb10 (human growth factor receptor-bound protein 10, wild type) (other, UniProt Q13322-3 1-536, looked up)
chain: MNASLESLYSACSMQSDTVPLLQNGQHARSQPRASGPPRSIQPQVSPRQRVQRSQPVHILAVRRLQEEDQQFRTSSLPAIPNPFPELCGPGSPPVLTPGSLPPSQAAAKQDVKVFSEDGTSKVVEILADMTARDLCQLLVYKSHCVDDNSWTLVEHHPHLGLERCLEDHELVVQVESTMASESKFLFRKNYAKYEFFKNPMNFFPEQMVTWCQQSNGSQTQLLQNFLNSSSCPEIQGFLHVKELGKKSWKKLYVCLRRSGLYCSTKGTSKEPRHLQLLADLEDSNIFSLIAGRKQYNAPTDHGLCIKPNKVRNETKELRLLCAEDEQTRTCWMTAFRLLKYGMLLYQNYRIPQQRKALLSPFSTPVRSVSENSLVAMDFSGQTGRVIENPAEAQSAALEEGHAWRKRSTRMNILGSQSPLHPSTLSTVIHRTQHWFHGRISREESHRIIKQQGLVDGLFLLRDSQSNPKAFVLTLCHHQKIKNFQILPCEDDGQTFFSLDDGNTKFSDLIQLVDFYQLNKGVLPCKLKHHCIRVAL
notes: Expressed by transfection in HEK293T cells; The phospho-specific antibody recognises it in the form phosphorylated at S501/S503 (mouse isoform 1 numbering) in cells; also called WT-Grb10; Grb10 WT; not shown: HA tag from vector pKH3
binding result [8]: no binding

— patent US20130252950A1, “TARGETING MTOR SUBSTRATES IN TREATING PROLIFERATIVE DISEASES” (President and Fellows of Harvard College, priority 2010, published 2013)
